Measured values as given in publication PMC12073635, “Synthesis of Tricyclic and Tetracyclic Lactone Derivatives of Thieno[2,3-b]pyrazine or Thieno[2,3-b]quinoline: Preliminary Antitumor and Antiparasitic Activity Evaluation” (Molecules, 2025).

Tests used:
[1] = tested on: L. infantum MHOM/MA/67/ITMAP-263 promastigotes; experiment: Resazurin-based assay against L. infantum promastigotes; format: cell-based, Leishmania infantum; details: Leishmania infantum, 72 h, dose-response
Description: The antiparasitic activity of compounds 2c–g, 3a, 5a and 7 was evaluated at a single concentration of 20 μM, against Trypanosoma brucei (T. brucei) and Leishmania infantum (L. infantum) promastigotes. The results are shown in Table 9 together with the cytotoxicity data (CC50) in THP-1–derived macrophages cells.
L. infantum MHOM/MA/67/ITMAP-263 promastigotes forms were grown at 27 °C, in complete RPMI-1640 medium supplemented with 10% heat-inactivated Fetal Bovine Serum (FBS), 2 mM L-glutamine, 100 UI/mL penicillin/streptomycin, 20 mM HEPES. Parasites maintenance was performed in T25 non-ventilated flasks by subpassage at a concentration of 1 × 10^6/mL every 5 days on T25 non-ventilated flasks.
The compounds’ efficacy against L. infantum promastigotes was evaluated using a resazurin-based assay. Parasites were added to 100 µL of serial dilutions of compounds in supplemented complete medium at a cell density of 5 × 10^5/mL. As a quality control, a dose–response curve to the antileishmanial drug miltefosine was included in all the assays. The final volume of the assay was 200 µL/well. Each condition was carried out in duplicate. Following 72 h of incubation at the specific conditions for L. infantum, 20 µL of a 0.5 mM resazurin solution was added, and the plates were incubated for a further 4 h under the same conditions. The methodology to obtain the results was the same described in Section 3.2.2. for T. brucei.

[2] = MTT cytotoxicity in THP-1-derived macrophages; format: cell-based, human; details: human, THP-1-derived macrophages (PMA-differentiated); MTT, 72 h, tested 100 to 12.5 μM; read-out: CC50 Interval in THP-1-Derived Macrophages
How it was run: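 THP-1 cells differentiated into macrophages with 40 ng/mL PMA for 24 h plus 24 h in fresh medium, then exposed to compounds at 100 to 12.5 μM for 72 h at 37 °C, 5% CO2. Viability by MTT (0.5 mg/mL, 4 h), absorbance 570 nm; CC50 by non-linear regression, at least three independent experiments.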

IC50 [1]: 16 µM
SMILES: COC(=O)c1sc2nccnc2c1C#Cc1ccccn1 [Compound 2f, Methyl 7-(pyridin-2-ylethynyl)thieno[2,3-b]pyrazine-6-carboxylate]
CC50 at 72 h [2]: 25 to 100 µM
